# Laboratory results published in PubChem BioAssay (NCI).
#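 Growth conditions: 96-well plates. Treatment: test compound, 48 hours, 5 concentrations. Analysis: linear interpolation between bracketing concentrations; unreached endpoints set to highest concentration. Abbreviation: GI50, concentration required for 50% inhibition of growth. TGI marks complete inhibition of growth.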
# What was measured:
# Experiment in all cases: inhibition of tumour cell growth, NCI panel, 48 h
# [1] = test system: OVCAR-5 ovarian
# [2] = test system: RXF 393 renal
# [3] = test system: SK-MEL-5 melanoma
# [4] = test system: HT29 colon
# [5] = test system: LOX IMVI melanoma
# [6] = test system: TK-10 renal
# [7] = test system: M14 melanoma
# [8] = test system: UACC-257 melanoma
# [9] = test system: T-47D breast
# [10] = test system: NCI-H460 lung
# [11] = test system: SF-268 CNS
# [12] = test system: HL-60(TB) leukemia
# [13] = test system: A549 NSCLC
# [14] = test system: OVCAR-3 ovarian
# [15] = test system: SK-MEL-28 melanoma
# [16] = test system: NCI/ADR-RES ovarian
# [17] = test system: RPMI-8226 leukemia
# [18] = test system: SNB-19 CNS
# [19] = test system: COLO 205 colon
# [20] = test system: HOP-92 NSCLC
# [21] = test system: HS 578T breast
# [22] = test system: SNB-75 CNS
# [23] = test system: SN12C renal
# [24] = test system: ACHN renal
# [25] = test system: CAKI-1 renal
# [26] = test system: MDA-MB-231 breast
# [27] = test system: HCT-15 colon
# [28] = test system: 786-0 renal
# [29] = test system: CCRF-CEM leukemia
# [30] = test system: SW-620 colon
# [31] = test system: MALME-3M melanoma
# [32] = test system: NCI-H226 lung
# [33] = test system: HCT-116 colon
# [34] = test system: UO-31 renal
# [35] = test system: OVCAR-8 ovarian
# [36] = test system: MOLT-4 leukemia
# [37] = test system: SK-MEL-2 melanoma
# [38] = test system: SR leukemia
# [39] = test system: UACC-62 melanoma
# [40] = test system: U251 CNS
# [41] = test system: MCF7 breast
# [42] = test system: MDA-MB-435
# [43] = test system: PC-3 prostate
# [44] = test system: SK-OV-3 ovarian
# [45] = test system: A498 renal
# [46] = test system: NCI-H522 lung
# [47] = test system: IGROV1 ovarian
# [48] = test system: DU-145 prostate
# [49] = test system: HCC-2998 colon
# [50] = test system: BT-549 breast
# [51] = test system: OVCAR-4 ovarian
# [52] = test system: EKVX NSCLC
# [53] = test system: HOP-62 NSCLC
# [54] = test system: K-562 leukemia
# [55] = test system: SF-539 CNS
smiles,measurement,setting,value
COc1ccc(NC(=O)[C@H](C)NC(=O)OC(C)(C)C)cc1C(=O)Nc1cccc(-c2cc(=O)c3c(OC)c(OC)c(OC)cc3o2)c1,GI50,[1],2.01 µM
same,TGI,[1],5.23 µM
same,GI50,[2],1.89 µM
same,TGI,[2],3.37 µM
same,GI50,[3],1.47 µM
same,TGI,[3],2.99 µM
same,GI50,[4],1.88 µM
same,TGI,[4],3.87 µM
same,GI50,[5],1.59 µM
same,TGI,[5],3.11 µM
same,GI50,[6],2.04 µM
same,TGI,[6],7.78 µM
same,GI50,[7],2.98 µM
same,TGI,[7],7.94 µM
same,GI50,[8],1.99 µM
same,TGI,[8],3.8 µM
same,GI50,[9],1.7 µM
same,TGI,[9],5.97 µM
same,GI50,[10],2.31 µM
same,TGI,[10],5.24 µM
same,GI50,[11],3.41 µM
same,TGI,[11],> 100 µM
same,GI50,[12],2.07 µM
same,TGI,[12],4.96 µM
same,GI50,[13],2.94 µM
same,TGI,[13],10.9 µM
same,GI50,[14],2.13 µM
same,TGI,[14],4.43 µM
same,GI50,[15],2.5 µM
same,TGI,[15],5.72 µM
same,GI50,[16],8.01 µM
same,TGI,[16],> 100 µM
same,GI50,[17],1.55 µM
same,TGI,[17],5.07 µM
same,GI50,[18],3.56 µM
same,TGI,[18],> 100 µM
same,GI50,[19],1.87 µM
same,TGI,[19],3.59 µM
same,GI50,[20],0.37 µM
same,TGI,[20],4.14 µM
same,GI50,[21],2.64 µM
same,TGI,[21],9.44 µM
same,GI50,[22],1.46 µM
same,TGI,[22],3.2 µM
same,GI50,[23],2.38 µM
same,TGI,[23],7.34 µM
same,GI50,[24],3.34 µM
same,TGI,[24],> 100 µM
same,GI50,[25],3.06 µM
same,TGI,[25],> 100 µM
same,GI50,[26],1.83 µM
same,TGI,[26],3.99 µM
same,GI50,[27],2.38 µM
same,TGI,[27],7.27 µM
same,GI50,[28],3.03 µM
same,TGI,[28],> 100 µM
same,GI50,[29],1.86 µM
same,TGI,[29],8.26 µM
same,GI50,[30],2.93 µM
same,TGI,[30],8.64 µM
same,GI50,[31],2.48 µM
same,TGI,[31],6.73 µM
same,GI50,[32],1.8 µM
same,TGI,[32],3.84 µM
same,GI50,[33],2.05 µM
same,TGI,[33],4.63 µM
same,GI50,[34],2.4 µM
same,TGI,[34],> 100 µM
same,GI50,[35],1.7 µM
same,TGI,[35],5.47 µM
same,GI50,[36],1.71 µM
same,TGI,[36],7.9 µM
same,GI50,[37],1.8 µM
same,TGI,[37],4.29 µM
same,GI50,[38],2.37 µM
same,TGI,[38],> 100 µM
same,GI50,[39],1.7 µM
same,TGI,[39],3.33 µM
same,GI50,[40],2.46 µM
same,TGI,[40],6.61 µM
same,GI50,[41],2.72 µM
same,TGI,[41],9.52 µM
same,GI50,[42],2 µM
same,TGI,[42],4.11 µM
same,GI50,[43],2.95 µM
same,TGI,[43],> 100 µM
same,GI50,[44],2.3 µM
same,TGI,[44],4.87 µM
same,GI50,[45],3.35 µM
same,TGI,[45],32.7 µM
same,GI50,[46],1.72 µM
same,TGI,[46],3.99 µM
same,GI50,[47],3.25 µM
same,TGI,[47],> 100 µM
same,GI50,[48],3.86 µM
same,TGI,[48],> 100 µM
same,GI50,[49],1.76 µM
same,TGI,[49],3.21 µM
same,GI50,[50],1.52 µM
same,TGI,[50],2.99 µM
same,GI50,[51],3.13 µM
same,TGI,[51],> 100 µM
same,GI50,[52],3.17 µM
same,TGI,[52],> 100 µM
same,GI50,[53],2.14 µM
same,TGI,[53],5.18 µM
same,GI50,[54],2.55 µM
same,TGI,[54],> 100 µM
same,GI50,[55],1.88 µM
same,TGI,[55],4.12 µM
